Source: patent publication US10538571B2, “Compositions and methods for neurological diseases” (Coda Biotherapeutics, Inc., priority 2017, dated 2020)

Columns and labels:
[1] = target: T1, engineered chimeric LGIC receptor SEQ ID NO:41 (as SEQ ID NO:33, further comprising the β1-β2 loop domain from GlyRα1) (Homo sapiens, UniProt P36544, F159M/H163T/I152M/K68T/N69T/Q70M/R155K/V154L/W156N/Y151P); test: Two electrode voltage clamp currents in Xenopus oocytes expressing the receptor; type: cell-based; conditions: FIG. 5
T1 construct: expressed in transfected cells; host or cells: Xenopus oocytes (cDNA injection)
Protocol: (§1) For Xenopus oocyte studies, injections of cDNAs encoding for ion channels at a final concentration of 0.04 μg/μL were performed using a proprietary automated injection device and receptor expression examined at least two days later. Oocytes were poked with two electrodes and their membrane potential maintained at −80 mV throughout the experiment. All recordings were performed at 18° C. and cells were superfused with OR2 medium containing in mM: NaCl 82.5, KCl 2.5, HEPES 5, CaCl2.2H2O 1.8, MgCl2.6H2O 1, pH 7.4. Recordings progressed if oocytes had sufficiently low holding current, in which case they were then subjected to ligand or test compound application (5-10 s wash intervals), with 100 s of wash in between doses. Currents evoked by acetylcholine or other agonists were recorded using an automated process equipped with standard two electrode voltage clamp configuration (TEVC). Data were captured and analyzed using HiQScreen proprietary data acquisition and analysis software running under Matlab (Mathworks Inc.). Acetylcholine was prepared as a concentrated stock solution (10-1 M) in water and then diluted in the recording medium to obtain the desired test concentration. Nicotine was diluted in water as stock solution (10-1 M), kept frozen and diluted immediately prior to the experiment at the desired concentration. Compounds were prepared as stock solution (10-1M) in OR2 and then diluted in the recording medium to obtain the desired test concentration. Stock solution for Compound-1 was made in OR2 at pH 5 adjusted with HCl. To assess that dilution at the final concentration of this stock solution introduced no significant changes, the pH of the final solution was confirmed using a colorimetric assay (Galietta L. J. V., et al. 2001. FEBS Letters 499: 220-224. Kruger W., et al. (2005). Neuroscience Letters 380: 340-345.)
(§2) To better understand the impact of the heterologous domains that had been inserted into the channels, the ligand-dependent response profiles of wild type α7-nAChR and various engineered chimeric LGIC receptors to acetylcholine as well as to non-native ligands TC-6987, AZD-0328, and Facinicline/RG3487 were assessed. Receptors were transiently expressed in […] cells and currents were measured on an automated patch clamp system (Fluxion Biosciences) following 1 second addition of drug. Inclusion of a GlyRα1 Cys-loop sequence in the extracellular domain increased the potency of all small molecules on the engineered receptor (leftward shift in EC50) (e.g. SEQ ID NO:35, FIG. 4C vs SEQ ID NO:16, FIG. 4B). […] Inclusion of both the Cys-loop and β1-β2 loop sequences of GlyRα1 in the extracellular domain reduced the sensitivity by about 1 log from that observed with the full Cys-loop sequence alone, but further increased conductance approximately 2-fold and slowed the rate of deactivation of the channel (SEQ ID NO:41, FIG. 4E vs. SEQ ID NO:33, FIG. 4D).

[2] = target: T2, engineered chimeric LGIC receptor SEQ ID NO:33 (α7-nAChR ligand binding domain with GlyRα1 Cys-loop, GlyRα1 ion pore domain) (Homo sapiens, UniProt P36544, F159M/H163T/I152M/R155K/V154L/W156N/Y151P); test: as above; type: cell-based
T2 construct: expressed in transfected cells; host or cells: Xenopus oocytes (cDNA injection)
Protocol: as §1, §2

[3] = test system: spared nerve injury (SNI) model; test: Spared nerve injury (SNI) model of neuropathic pain, mechanical withdrawal threshold (von Frey, up-down method) after AAV.hSYN-α7-nAChR/GlyRα1 injection; type: in vivo, rat; conditions: single IP injection
Text: Eight expression cassettes are constructed using standard molecular biology techniques. All contain a human synapsin-1 (hSYN) promoter linked to engineered chimeric receptors comprising a ligand binding domain of α7-nAChR and a Cys-loop domain and ion pore domain of GlyRα1. Their design is as follows:
These cassettes are subcloned into AAV bacmids, purified, transfected into Sf9 insect cells to produce recombinant bacuvlovirus, and then amplified. Sf9 cells are double infected using the amplified recombinant baculovirus containing the hSYN-α7-nAChR/GlyRα1 cassettes and another recombinant baculovirus containing the Rep and AAV6(Y705+731F+T492V) Cap genes to produce recombinant AAV vectors. The viral vectors are purified, viral titer determined using qPCR, and SDS-PAGE used to verify the purity of AAV vectors.
To produce mechanical hypersensitivity in a model that mimics a neuropathic pain condition, the spared nerve injury (SNI) model (a validated model of mechanical allodynia) is used (Shields et al., 2003, The Journal of Pain, 4, 465-470). This model is produced by the sectioning of the common peroneal and the sural nerves and isolating the tibial branch. Mechanical withdrawal threshold is assessed by placing rats on an elevated wire-mesh grid and stimulating the plantar surface of the hind paw with von Frey filaments.
A dorsal hemilaminectomy is made at the level of the lumbar enlargement to expose two segments (about 1.5-2 mm) of lumbar spinal cord, after which the dura mater is incised and reflected. The viral solution is loaded into a glass micropipette (prefilled with mineral oil). The micropipette is connected to a manual micro-injector mounted on a stereotactic apparatus. The viral solution is targeted to the dorsal horn (left side). Along the rostro-caudal axis within the exposed region, 6 injections of 240 nl each are performed, in an equidistant linear fashion. After each injection, 1 min of resting time is observed and then the muscle layer is sutured, the skin closed with staples, and the animals were allowed to recover with heated-pad before they were returned to their home cages. Animals are perfused for histological analysis after the last behavior test.
The injection is performed with a borosilicate glass capillary (0.78/1 mm internal/external diameters) pulled to a fine point, attached by polyethylene tubing (0.4/0.8 mm internal/external diameters) to a syringe mounted in a microinjection pump. The needle is mounted on an extended arm of a stereotaxic frame swung to the outside (used to hold and manipulate the needle only). Tubing, syringe, and needle are all filled with water. One microliter air is taken up into the needle followed by 3 μL of the viral vector solution. The needle is loaded separately with this volume for each injection. Animals are anesthetized prior to surgery. Following an incision along the dorsal midline, the L4 and L5 DRG are exposed by removal of the lateral processes of the vertebrae. The epineurium lying over the DRG is opened, and the glass needle inserted into the ganglion, to a depth of 400 μm from the surface of the exposed ganglion. After a 3-minute delay to allow sealing of the tissue around the glass capillary tip, 1.1 μL virus solution was injected at a rate of 0.2 μL/minute. After a further delay of 2 minutes, the needle is removed. The L4 ganglion is injected first followed by the L5 ganglion. The muscles overlying the spinal cord are loosely sutured together with a 5-0 suture and the wound closed. Animals are allowed to recover at 37° C. and received postoperative analgesia.
Rats are first anesthetized and then placed vertically with their head fixed in a stereotaxic frame. An incision is made in the base of the neck to expose the groove in the nuchal crest. An incision is made (1-2 mm) in the cisternal membrane to a depth such that cerebrospinal fluid leaks out. […]

T1 sequence (P36544 with tags, fused parts or gaps K68T/N69T/Q70M/Y151P/I152M/V154L/R155K/W156N/F159M/H163T): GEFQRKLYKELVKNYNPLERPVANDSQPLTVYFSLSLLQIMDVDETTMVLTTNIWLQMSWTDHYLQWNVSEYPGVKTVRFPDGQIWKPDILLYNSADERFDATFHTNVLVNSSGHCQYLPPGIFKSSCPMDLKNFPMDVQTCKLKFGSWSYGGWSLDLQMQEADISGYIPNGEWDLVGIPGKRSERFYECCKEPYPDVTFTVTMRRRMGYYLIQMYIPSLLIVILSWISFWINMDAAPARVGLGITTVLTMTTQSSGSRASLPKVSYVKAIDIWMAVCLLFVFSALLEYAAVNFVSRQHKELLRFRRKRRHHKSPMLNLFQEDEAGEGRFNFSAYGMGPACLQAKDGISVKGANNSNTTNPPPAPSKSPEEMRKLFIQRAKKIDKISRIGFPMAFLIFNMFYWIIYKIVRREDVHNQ
T2 sequence (P36544 with tags, fused parts or gaps Y151P/I152M/V154L/R155K/W156N/F159M/H163T): as the sequence (P36544 with tags, fused parts or gaps K68T/N69T/Q70M/Y151P/I152M/V154L/R155K/W156N/F159M/H163T) above, with T46K, T47N, M48Q counted along it

Q: Which “sensitivity of SEQ ID NO:41 to ligand compared with wild type α7-nAChR” value [1] does the source give for `O=C(N[C@@H]1C2CCN(CC2)[C@H]1Cc1cccnc1)c1cc(F)cc(F)c1` [TC-6987] here?
A: comparably sensitive

Q: What about the “sensitivity of SEQ ID NO:33 to ligand compared with wild type α7-nAChR” value ([2]; Xenopus oocytes, FIG. 5) of the same compound?
A: approximately as sensitive

Q: What about the “agonist activity on SEQ ID NO:33” value ([2]; similar to wild type) of the same compound?
A: partial agonist activity

Q: With `CN1CCCC1c1cccnc1` (stereo not shown) [nicotine] as the compound, how does the “EC50 on SEQ ID NO:41 fold larger (right shifted) than for wild type” value [1] read?
A: ~7 fold

Q: And the “fold less sensitive than wild type α7-nAChR” value ([2]; Xenopus oocytes, FIG. 5)?
A: approximately 2 fold

Q: Which results are given for `c1ccc(-c2nnc(O[C@@H]3C4CC5C[C@H]3CN(C5)C4)s2)cc1` [ABT-126]?
A: sensitivity of SEQ ID NO:41 to ligand compared with wild type α7-nAChR [1]: comparably sensitive; sensitivity of SEQ ID NO:33 to ligand compared with wild type α7-nAChR ([2]; Xenopus oocytes, FIG. 5): approximately as sensitive

Q: With `O=C(N[C@@H]1CN2CCC1CC2)c1n[nH]c2ccccc12` [Facinicline/RG3487] as the compound, how does the “EC50 on SEQ ID NO:41 fold lower (left shifted) than for wild type” value [1] read?
A: approximately 2 fold

Q: And the “sensitivity of SEQ ID NO:41 compared with SEQ ID NO:33” value [1]?
A: less sensitive

Q: And the “fold more sensitive than wild type α7-nAChR” value ([2]; Xenopus oocytes, FIG. 5)?
A: ~10 fold

Q: What about the “reversal of mechanical hypersensitivity” value ([3]; high dose of ligand, all rats (Chimera 1-8)) of the same compound?
A: complete reversal

Q: And the “reversal of mechanical hypersensitivity” value ([3]; low dose, rats receiving Chimera 1, 2, 4, 5, 6 and 8)?
A: complete reversal

Q: And the “reversal of mechanical hypersensitivity” value ([3]; low dose, rats receiving Chimera 3 and 7)?
A: partial reversal
